The results in this text go back to US12528818B2, “Compositions and methods for inhibition of RAS” (Leidos Biomedical Research, Inc., priority 2021, dated 2026).

pIC50: −log10 of the molar value.

For one experiment, the system named is pERK in NCI-H358 cells. Description: Cell-based pERK HTRF assay (pERK inhibition in H358 cells). To be noted: Homo sapiens, NCI-H358, 0.5 h, pERK inhibition IC50, NCI-H358 cells, 30 min incubation; read-out: PERK in H358 cell. On the procedure: On Day 1, cells (NCI-H358) were seeded into 96-well plates at 4×10^4 cells/well in complete growth media (RPMI, 10% FBS).
The source plate was created with compounds diluted in media at 5-fold the final assay concentration. […] 20 μL was transferred onto the cell plates (final volume in wells was 100 μL). Plates were harvested after 30 min incubation by aspirating media and adding kit-supplied 1× supplemented lysis buffer to all wells (75 μl per well). Plates were then placed on a plate shaker and incubated at 850 rpm for an additional 30 min.
Antibody mixture solution was prepared by diluting aliquoted d2 and Eu Cryptate antibodies 1:20 in kit supplied detection buffer, then mixed the diluted antibodies solutions (1:1 v:v).
Samples were homogenized by pipetting up and down and then transferred (16 μL of cell lysates) from the 96-well cell culture plate to two wells of the HTRF 384-well detection plate containing the antibody solution. Plates were centrifuged (524 g for 1 min) and allowed to incubate between 4 and 24 h at room temperature. Maximum signal is reached after 4 h incubation time and remains stable over a period of 24 hours. Therefore, readings can be made between 4 and 24 h of incubation.
Background: Time-resolved FRET reads energy transfer from a long-lived donor to a nearby acceptor.
On to `C=C(F)C(=O)N1C[C@H](C)N(c2nc(OC[C@@]34CCCN3C[C@H](F)C4)nc3c(F)c(-c4ccc(F)c5sc(N)nc45)c(C(F)(F)F)cc23)C[C@H]1C` [Compound 203], for which the pIC50 is 6.00 to 7.00.
On the same count and under the same terms, with `C=CC(=O)N1CCN(c2nc(OC[C@]34CCCN3C[C@H](F)C4)nc3c(F)c(-c4ccc(F)c5sc(N)nc45)c(C(F)(F)F)cc23)[C@@H](C)C1` [Compound 177] the figure was over 7.00.
On the same count and under the same terms, next, `C=CC(=O)N1CC[C@@H](N(C)c2nc(OC[C@@]34CCCN3C[C@H](F)C4)nc3cc(-c4ccc(F)c5sc(N)c(C#N)c45)c(F)cc23)[C@H]1COC` [Compound 391]: over 7.00; `C=CC(=O)N1CC[C@@H](N(CC)c2nc(OC[C@@]34CCCN3C[C@H](F)C4)nc3cc(-c4ccc(F)c5sc(N)c(C#N)c45)c(F)cc23)[C@H]1COC` [Compound 437]: 6.00 to 7.00; `C=CC(=O)N1CC(N(C)c2nc(OCC34CCCN3CCC4)nc3c(F)c(-c4ccc(F)c5sc(N)nc45)c(Cl)cc23)C1` [Compound 84, 1-(3-((7-(2-amino-7-fluorobenzo[d]thiazol-4-yl)-6-chloro-8-fluoro-2-((tetrahydro-1H-pyrrolizin-7a(5H)-yl)methoxy)quinazolin-4-yl)(methyl)amino)azetidin-1-yl)prop-2-en-1-one]: 6.00 to 7.00.
Same read-out and setting: next, `C=CC(=O)N1C[C@@H](F)[C@@H](N(C)c2nc(OC[C@@H]3C[C@@H](OC)CN3C)nc3cc(-c4ccc(F)c5sc(N)nc45)c(C(F)(F)F)cc23)C1` [Compound 350]: over 7.00.
With `C=CC(=O)N1CC[C@H](N(C)c2nc(OC[C@@]34CCCN3C[C@H](F)C4)nc3c(F)c(-c4ccc(F)c5sc(N)nc45)c(C(F)(F)F)cc23)C1` [Compound 188], the pIC50 is 6.00 to 7.00.
Still for that read-out and setting: with `C=CC(=O)N1C[C@@H](F)[C@@H](N(C)c2nc(OC[C@@H]3C[C@@H](F)CN3C)nc3cc(-c4ccc(F)c5sc(N)c(C#N)c45)c(C(F)(F)F)cc23)C1` [Compound 356] the figure was over 7.00.
The same measure, in the same setting: next, `C=CC(=O)NCCNc1nc(C2CCN(C)CC2)nc2c(F)c(-c3ccc(F)c4sc(N)nc34)c(Cl)cc12` [Compound 64]: under 6.00.
On the same count and under the same terms, with `C=CC(=O)N1CC(N(c2nc(OC[C@]34CCCN3C[C@H](F)C4)nc3c(F)c(-c4ccc(F)c5sc(N)nc45)c(Cl)cc23)C2CC2)C1` [Compound 210] the figure was under 6.00; with `CC#CC(=O)N1CC[C@@H]2[C@H]1CN2c1nc(OCC23CCCN2CCC3)nc2c(F)c(-c3ccc(F)c4sc(N)nc34)c(C(F)(F)F)cc12` [Compound 180], under 6.00; with `C=CC(=O)N1CCC(N(C)c2nc(OC[C@@]34CCCN3C[C@H](F)C4)nc3c(C#N)c(-c4ccc(F)c5sc(N)c(C#N)c45)c(Cl)cc23)[C@H]1C` (stereo partly drawn) [Compound 388, 4-((1-acryloyl-2-methylpyrrolidin-3-yl)(methyl)amino)-7-(2-amino-3-cyano-7-fluorobenzo[b]thiophen-4-yl)-6-chloro-2-(((2R,7aS)-2-fluorotetrahydro-1H-pyrrolizin-7a(5H)-yl)methoxy)quinazoline-8-carbonitrile], over 7.00.
For `C=CC(=O)N1CCN(c2nc(OC[C@@]34CCCN3C[C@H](F)C4)nc3c(F)c(-c4ccc(F)c5sc(N)nc45)c(C(F)(F)F)cc23)CC1` [Compound 194], the pIC50 is over 7.00.
Same read-out and setting: with `C=CC(=O)N1CC[C@@H](N(C)c2nc(OC[C@@H]3C[C@@H](F)CN3C3CC3)nc3c(F)c(-c4ccc(F)c5sc(N)nc45)c(C(F)(F)F)cc23)C1` [Compound 273] the figure was 6.00 to 7.00.
Still for that read-out and setting: with `C=CC(=O)N1C[C@H](F)[C@@H](N(C)c2nc(OC[C@@]34CCCN3C[C@H](F)C4)nc3cc(-c4ccc(F)c5sc(N)c(C#N)c45)c(C(F)(F)F)cc23)C1` [Compound 320] the figure was over 7.00; with `C=CC(=O)N1C[C@H](N(C)c2nc(OC[C@@]34CCCN3C[C@H](F)C4)nc3c(F)c(-c4ccc(F)c5sc(N)nc45)c(C(F)(F)F)cc23)C[C@H]1C` [Compound 274], over 7.00.
Same read-out and setting: with `C=CC(=O)N1CCC(N(CC)c2nc(OC[C@@]34CCCN3C[C@H](F)C4)nc3c(C#N)c(-c4ccc(F)c5sc(N)c(C#N)c45)ccc23)[C@H]1COC` (some centres unmarked) [Compound 428] the figure was 6.00 to 7.00; with `C=CC(=O)N1C[C@H](C)N(c2nc(OC[C@@]34CCCN3C[C@H](F)C4)nc3c(F)c(-c4ccc(F)c5sc(NC(C)=O)c(C#N)c45)c(C(F)(F)F)cc23)C[C@H]1C` [Compound 378], 6.00 to 7.00; with `C=CC(=O)N1CC(Nc2nc(OCC34CCCN3CCC4)nc3c(F)c(-c4ccc(F)c5sc(N)nc45)c(Cl)cc23)[C@H]1C` (some centres unmarked) [Compound 213], under 6.00.
`C=CC(=O)N1C[C@@H](F)[C@@H](N(CC)c2nc(OC[C@@]34CCCN3C[C@H](F)C4)nc3cc(-c4ccc(F)c5sc(N)c(C#N)c45)c(C#N)cc23)C1` [Compound 386]: the pIC50 was over 7.00.
On the same count and under the same terms, with `C=CC(=O)N1CC[C@@H](N(C)c2nc(OCC)nc3c(F)c(-c4ccc(F)c5sc(N)c(C#N)c45)ccc23)[C@H]1C` [Compound 463] the figure was under 6.00; with `C=CC(=O)N1CC[C@@H]2[C@H]1CN2c1nc(OCC23CCCN2CCC3)nc2c(F)c(-c3ccc(F)c4sc(N)nc34)c(-c3ccoc3)cc12` [Compound 121], under 6.00; with `C=CC(=O)N1C[C@@H](F)[C@@H](N(C)c2nc(OC[C@@]34CCCN3C[C@H](F)C4)nc3c(F)c(-c4ccc(F)c5sc(N)nc45)c(C(F)(F)F)cc23)C1` [Compound 279], over 7.00.
The same measure, in the same setting: with `C=CC(=O)N1CC(Nc2nc(OC[C@@]34CCCN3C[C@H](F)C4)nc3c(F)c(-c4ccc(F)c5sc(N)nc45)c(C(F)(F)F)cc23)C1` [Compound 270] the figure was over 7.00; with `C=C(F)C(=O)N1CCN(c2nc(OC[C@]34CCCN3C[C@H](F)C4)nc3c(F)c(-c4ccc(F)c5sc(N)nc45)c(C(F)(F)F)cc23)[C@H](C)C1` [Compound 199], 6.00 to 7.00.
With `C=CC(=O)N1CCN(c2nc(OC[C@]34CCCN3C[C@H](F)C4)nc3c(F)c(-c4ccc(F)c5sc(N)nc45)c(C(F)(F)F)cc23)CC1` [Compound 150], the pIC50 is over 7.00.
The same measure, in the same setting: with `C=CC(=O)N1CC(N(CCC#N)c2nc(OC[C@@H]3CCCN3C)nc3c(F)c(-c4ccc(F)c5sc(N)nc45)c(Cl)cc23)C1` [Compound 141] the figure was under 6.00.
Turning to `C=CC(=O)N1CCN(c2ncnc3c(F)c(-c4ccc(F)c5sc(N)nc45)c(Cl)c(OC)c23)CC1` [Compound 82], the pIC50 was over 7.00.
The same measure, in the same setting: with `CC#CC(=O)N1CC[C@@H]2[C@H]1CN2c1nc(OCC23CCCN2CCC3)nc2c(F)c(-c3ccc(F)c4sc(N)nc34)c(-c3ccoc3)cc12` [Compound 120] the figure was under 6.00; with `C=CC(=O)N1CCC(N(C)c2nc(OC[C@@H]3CC4(CC4)CN3C)nc3cc(-c4ccc(F)c5sc(N)c(C#N)c45)c(C#N)cc23)[C@H]1COC` (some centres unmarked) [Compound 446], 6.00 to 7.00.
Turning to `C=CC(=O)N1CC(Nc2nc(OCC34CCCN3CCC4)nc3c(F)c(-c4ccc(F)c5sc(N)nc45)c(CC#N)cc23)C1` [Compound 91, 2-(4-((1-acryloylazetidin-3-yl)amino)-7-(2-amino-7-fluorobenzo[d]thiazol-4-yl)-8-fluoro-2-((tetrahydro-1H-pyrrolizin-7a(5H)-yl)methoxy)quinazolin-6-yl)acetonitrile], the pIC50 is under 6.00.
Same read-out and setting: next, `C=CC(=O)N1CC[C@@H]2[C@H]1CN2c1nc(OC[C@@H]2CCCN2C)nc2c(F)c(-c3ccc(F)c4sc(N)nc34)c(Cl)cc12` [Compound 66]: over 7.00.
Same read-out and setting: next, `C=CC(=O)N1CCC(N(C)c2nc(OC[C@@H]3CCCN3C)nc3c(F)c(-c4ccc(F)c5sc(N)c(C#N)c45)c(Cl)cc23)[C@H]1C` (some centres unmarked) [Compound 419]: over 7.00.
Still for that read-out and setting: with `C=CC(=O)N1CCC(N(C)c2nc(OC)nc3c(F)c(-c4ccc(F)c5sc(N)c(C#N)c45)ccc23)[C@H]1C` (some centres unmarked) [Compound 461] the figure was under 6.00; with `C=CC(=O)N1CCC(N(C)c2nc(OC[C@@H]3CCCN3C)nc3c(F)c(-c4ccc(F)c5sc(N)c(C#N)c45)ccc23)[C@H]1COC` (some centres unmarked) [Compound 432], 6.00 to 7.00.
For `C=CC(=O)N1CCC(N(CC)c2nc(OC[C@@H]3CCCN3C)nc3cc(-c4ccc(F)c5sc(N)c(C#N)c45)c(C#N)cc23)[C@H]1COC` (some centres unmarked) [Compound 470], the pIC50 was 6.00 to 7.00.
Still for that read-out and setting: with `C=CC(=O)N1CC[C@@H](N(C)c2nc(OC[C@@]34CCCN3C[C@H](F)C4)nc3c(F)c(-c4ccc(F)c5sc(N)nc45)c(C(F)(F)F)cc23)C1` [Compound 198] the figure was over 7.00; with `C=CC(=O)N1C[C@H](C)[C@@H](N(C)c2nc(OC[C@@]34CCCN3C[C@H](F)C4)nc3c(F)c(-c4ccc(F)c5sc(N)nc45)c(C(F)(F)F)cc23)C1` [Compound 296], over 7.00; with `C=CC(=O)N1CCN(c2nc(OC[C@@]34CCCN3C[C@@H](F)C4)nc3c(F)c(-c4ccc(F)c5sc(N)nc45)c(C(F)(F)F)cc23)C[C@H]1C` [Compound 220], over 7.00.

The same experiment, now with this note: pERK inhibition IC50, NCI-H358 cells, 30 min incubation; read-out: PERK in H358 cell.
For `C=CC(=O)N1CC[C@@H](N(c2nc(OC[C@@]34CCCN3C[C@H](F)C4)nc3c(F)c(-c4ccc(F)c5sc(N)nc45)c(C(F)(F)F)cc23)C2CC2)C1` (single isomer, unassigned) [Compound 236], the pIC50 is over 7.00.
Same read-out and setting: next, `C=CC(=O)N1CC[C@@H](N(C)c2nc(OC[C@@H]3CC(F)(F)CN3C)nc3c(F)c(-c4ccc(F)c5sc(N)nc45)c(C(F)(F)F)cc23)C1` (atropisomer, axis not shown) [Compound 229]: under 6.00.
